Patent publication US20240307383A1 (AstraZeneca AB, priority 2023, published 2024)
Read-outs that look alike come from different tables or passages of the source.

Experiments:
[1] = test system: patients having chronic kidney disease; assay: Systolic blood pressure change from baseline, participants having UACR >700 mg/g (FIG. 7A, Table 11A); assay type: in vivo, human; conditions: for Systolic blood pressure, mean change from baseline: Dapa 10 mg + placebo, UACR >700 mg/g
[2] = test system: patients having chronic kidney disease; assay: Systolic blood pressure change from baseline, all participants (Example 3, FIG. 6, Table 10B); assay type: in vivo, human
[3] = test system: patients having chronic kidney disease; assay: UACR change from baseline over 12 weeks (Example 3, FIG. 5); assay type: in vivo, human; conditions: dapagliflozin 10 mg alone; plateau over 12-week period; UACR>700 mg/g
[4] = test system: healthy volunteers and patients with type 2 diabetes; conditions: cited from earlier work
[5] = test system: patients having chronic kidney disease; assay: Diastolic blood pressure change from baseline, participants having UACR >700 mg/g (FIG. 7B, Table 11B); assay type: in vivo, human; conditions: for Diastolic blood pressure, mean change from baseline: Dapa 10 mg + placebo, UACR >700 mg/g
[6] = observations so far; cited from earlier work
pregnant rabbits = conditions: period of major embryonic organogenesis; cited from earlier work
[7] = test system: patients with type 2 diabetes and CKD; conditions: post hoc analysis of the CREDENCE trial; cited from earlier work
[8] = dapagliflozin 10 mg + placebo, end of 12-week period, UACR>700 mg/g

For `CCOc1ccc(Cc2cc([C@@H]3O[C@H](CO)[C@@H](O)[C@H](O)[C@H]3O)ccc2Cl)cc1` [dapagliflozin, (1S)-1,5-anhydro-1-{4-chloro-3-[(4-ethoxyphenyl)methyl]phenyl}-D-glucitol], the “Systolic blood pressure, mean change from baseline” value ([1]; Week 1) was −5.7, the “Systolic blood pressure, mean change from baseline” value ([1]; Week 3) was −6.1 and the “Systolic blood pressure, mean change from baseline” value ([1]; Week 6) was −6.5. The “Systolic blood pressure, mean change from baseline” value ([1]; Week 9) was −2.9, the “Systolic blood pressure, mean change from baseline” value ([1]; Week 12) was −4.6 and the “Mean reduction in systolic blood pressure from baseline” value [1, 8] was “over 4%”. The “Systolic blood pressure, mean change” value ([2]; Dapa 10 mg + placebo, all participants) was −3.4, the “Decrease in systolic blood pressure from baseline” value ([2]; dapagliflozin 10 mg + placebo, 12-week period, all participants) was 3.4% and the “Systolic blood pressure after final planned dose” value ([2]; dapagliflozin 10 mg + placebo, week 14) was “returned to baseline levels”. For the same compound, the “Mean percent decrease of UACR from baseline” value [3] was “approximately 20%”, the Well tolerated dose ([4]; repeat dose testing for 14 days in healthy volunteers and patients with type 2 diabetes) was “up to 100 mg/day” and the Well tolerated dose ([4]; single dose testing in healthy volunteers) was “up to 500 mg/day”. For the same compound, the “Diastolic blood pressure, mean change from baseline” value ([5]; Week 1) was −2.9, the “Diastolic blood pressure, mean change from baseline” value ([5]; Week 3) was −2.4 and the “Diastolic blood pressure, mean change from baseline” value ([5]; Week 6) was −2.7. For the same compound, the “Diastolic blood pressure, mean change from baseline” value ([5]; Week 9) was −2.0, the “Diastolic blood pressure, mean change from baseline” value ([5]; Week 12) was −2.2 and the “Mean reduction in diastolic blood pressure relative to baseline” value [5, 8] was “approximately 2%”.

For `COc1nc(C)cnc1NS(=O)(=O)c1cccnc1-c1ccc(-c2nnco2)cc1` [zibotentan, N-(3-methoxy-5-methylpyrazin-2-yl)-2-[4-(1,3,4-oxadiazol-2-yl)phenyl]pyridine-3-sulfonamide], the Hepatotoxicity [6] is listed as “has not been observed” and the “Dose levels causing teratogenic effects” value (pregnant rabbits) is listed as ≥ 1 mg/kg/day.

For `Cc1ccc([C@@H]2O[C@H](CO)[C@@H](O)[C@H](O)[C@H]2O)cc1Cc1ccc(-c2ccc(F)cc2)s1` [canagliflozin], the “Effect on UACR levels” value [7] is given as “failed to reduce UACR levels below 300 mg/g in a substantial number of patients”.
